Measured values: article PMC4366261, “Characterization of the Intestinal Absorption of Seven Flavonoids from the Flowers of Trollius chinensis Using the Caco-2 Cell Monolayer Model” (PLoS ONE, 2015)
Values after ≈ are worked out from the molar mass of the structure shown.

Legend:
[1] = Transport experiment across Caco-2 cell monolayer (Papp); format: in vitro ADME, human; settings: human
Protocol: (§1) For cells differentiation to form a confluent monolayer, Caco-2 cells were seeded into the inserts of the 12-well Transwell plates at the density of 1.0×10^5 cells/cm^2. The culture medium was replaced on every other day in the first week, and then at daily intervals for the apical (AP) side and 2 days intervals for the basal (BL) side until the transport experiment was performed 21 days after seeding. The AP and BL sides contained 0.5 and 1.5 mL of culture medium, respectively. […] The cell inserts were considered as qualified only if the resistance reached above 600 Ω cm^2.
(§2) On day 21, the transport experiment was initiated by removal of the culture medium from AP and BL sides. The Caco-2 monolayers were rinsed twice with pre-warmed Hanks balanced salt solution (HBSS) and were incubated with the same solution at 37°C for 30 min. The seven individual test compounds and an equimolar mixture of them were pre-dissolved in DMSO, and then diluted to 25, 50, and 100 μmol/L with an appropriate volume of HBSS to allow the final concentration of DMSO to be less than 1%. The test compounds were added to the AP (0.5 mL) or BL side (1.5 mL), while the receiving chamber contained the corresponding volume of HBSS. Incubation was performed at 37°C for 180 min, with shaking at 50 rpm. At 30, 60, 90, 120, 150, and 180 min, each 0.2 mL of the solution from BL or AP side was collected, and replaced with an equal volume of HBSS. The samples were frozen immediately and stored below-20°C before analysis.
(§3) The apparent permeability coefficients (Papp) were determined in this study by HPLC quantification of the compounds in the receiver chamber after transport across the Caco-2 monolayer. The calculation was carried out in accordance with the formula Papp = (dQ/dt)×(1/A)×(1/C0), wherein dQ/dt was the rate of appearance of the test compound in the receiver compartment (μmol/s); C0 was the initial concentration of test compound in the donor compartment (μmol/mL); and A was the surface area of the Caco-2 monolayer (cm^2). The percentage transported (%) was calculated using the formula % transported = QB/(CS×VD)×100, wherein QB was the quantity of compound in the receiver compartment (μmol); CS was the concentration of test compound in the donor compartment (μmol/mL); VD was the liquid volume of the donor compartment (mL). The transport rate (μmol/h/cm^2) was calculated using the formula transport rate = QB/(t×A), wherein QB was the quantity of compound in the receiver compartment (μmol); t was the incubation time (h); A was the surface area of the Caco-2 monolayer (cm^2).

Caco-2 cell monolayer = experiment: as above; format: in vitro ADME, human; settings: for Absorption mechanism: from P ratio, time course and concentration course; for P ratio Papp AP→BL/Papp BL→AP: 50 μmol/L, 90 min
Protocol: as §1, §2, §3

[2] = Stability of sample solutions at room temperature by HPLC; format: physicochemical; settings: sample solution at room temperature, HPLC at 0, 1, 2, 4, 6, 12 and 24 h
Protocol: The intra-day precision was determined by investigating the analytes in sextuplicates during a single day, and the inter-day precision was determined by conducting the intra-day experiment on two consecutive days. […] Each one sample solution of the seven flavonoids was kept at room temperature, and then their stabilities were determined by injecting them into apparatus at 0, 1, 2, 4, 6, 12, and 24 h.

Caco-2 cells = experiment: MTT assay, survival rate of Caco-2 cells; format: cell-based, human; settings: 4 h
Text: The human colon adenocarcinoma cell line Caco-2 (No. 3111C0001CCC000100, passage 32) was obtained from the Cell Resource Center, Peking Union Medical College (the headquarters of National Infrastructure of Cell Line Resource, NSTI) on May 3rd, 2013. The cell line was checked free of mycoplasma contamination by PCR and culture, its species origin was confirmed with PCR, and its identity was authenticated with STR profiling (FBI, CODIS). All results of the above tests can be viewed on the website (http://cellresource.cn). The cells were cultured in 25 cm^2 flasks in DMEM medium supplemented with 10% (v/v) FBS, 1% (v/v) NEAA, and 1% (v/v) penicillin-streptomycin, in an atmosphere of 5% CO2 at 37°C and constant moisture. The culture medium was replaced every 2 to 3 days, and the cells were split 1:2 or 1:3 as 80% confluence was obtained.
Caco-2 cells at logarithmic growth phase were seeded into 96-well plates and incubated at 37°C in an atmosphere of 5% CO2 and constant moisture in the incubator. After the cells reached confluence, they were cultured in quadruplicate with 100 μL of HBSS solution (negative control) and compound-containing HBSS solution (seven flavonoids or paclitaxel (positive control) at the concentrations of 25, 50, and 100 μmol/L, respectively) for 4 h. Then, HBSS solution was replaced by 100 μL of MTT solution (0.5 mg/mL), and the supernatant was discarded after 4 h of incubation at 37°C. The cells were shaken with 150 μL of DMSO for 10 min, and the absorbance was read on the microplate reader at 570 nm. The survival rate %=A¯/A0¯×100 , wherein A¯ was the average absorbance value of treatment or positive control group, and A0¯ was the average absorbance value of negative control group.

[3] = tested on: parainfluenza virus type 3 (Para 3); parameters: method as in PMID 11849843; settings: cited from earlier work
Staphylococcus aureus = tested on: Staphylococcus aureus; parameters: method as in earlier work; settings: cited from earlier work
S. epidermidis = tested on: S. epidermidis; parameters: method as in earlier work; settings: cited from earlier work
murine ear edema model = settings: cited from earlier work
P-glycoprotein (P-gp) = target: T1, P-glycoprotein (P-gp) (Homo sapiens, UniProt P08183); experiment: Transporter inhibition experiment with verapamil hydrochloride (P-gp) in Caco-2 monolayer; format: in vitro ADME; settings: 50 μmol/L compound, 100 μmol/L verapamil hydrochloride, AP to BL; for Effect of verapamil hydrochloride on the transport: 180 min
T1 construct: endogenous in cells; host or cells: Caco-2 cells
T1 sequence (P08183 whole entry): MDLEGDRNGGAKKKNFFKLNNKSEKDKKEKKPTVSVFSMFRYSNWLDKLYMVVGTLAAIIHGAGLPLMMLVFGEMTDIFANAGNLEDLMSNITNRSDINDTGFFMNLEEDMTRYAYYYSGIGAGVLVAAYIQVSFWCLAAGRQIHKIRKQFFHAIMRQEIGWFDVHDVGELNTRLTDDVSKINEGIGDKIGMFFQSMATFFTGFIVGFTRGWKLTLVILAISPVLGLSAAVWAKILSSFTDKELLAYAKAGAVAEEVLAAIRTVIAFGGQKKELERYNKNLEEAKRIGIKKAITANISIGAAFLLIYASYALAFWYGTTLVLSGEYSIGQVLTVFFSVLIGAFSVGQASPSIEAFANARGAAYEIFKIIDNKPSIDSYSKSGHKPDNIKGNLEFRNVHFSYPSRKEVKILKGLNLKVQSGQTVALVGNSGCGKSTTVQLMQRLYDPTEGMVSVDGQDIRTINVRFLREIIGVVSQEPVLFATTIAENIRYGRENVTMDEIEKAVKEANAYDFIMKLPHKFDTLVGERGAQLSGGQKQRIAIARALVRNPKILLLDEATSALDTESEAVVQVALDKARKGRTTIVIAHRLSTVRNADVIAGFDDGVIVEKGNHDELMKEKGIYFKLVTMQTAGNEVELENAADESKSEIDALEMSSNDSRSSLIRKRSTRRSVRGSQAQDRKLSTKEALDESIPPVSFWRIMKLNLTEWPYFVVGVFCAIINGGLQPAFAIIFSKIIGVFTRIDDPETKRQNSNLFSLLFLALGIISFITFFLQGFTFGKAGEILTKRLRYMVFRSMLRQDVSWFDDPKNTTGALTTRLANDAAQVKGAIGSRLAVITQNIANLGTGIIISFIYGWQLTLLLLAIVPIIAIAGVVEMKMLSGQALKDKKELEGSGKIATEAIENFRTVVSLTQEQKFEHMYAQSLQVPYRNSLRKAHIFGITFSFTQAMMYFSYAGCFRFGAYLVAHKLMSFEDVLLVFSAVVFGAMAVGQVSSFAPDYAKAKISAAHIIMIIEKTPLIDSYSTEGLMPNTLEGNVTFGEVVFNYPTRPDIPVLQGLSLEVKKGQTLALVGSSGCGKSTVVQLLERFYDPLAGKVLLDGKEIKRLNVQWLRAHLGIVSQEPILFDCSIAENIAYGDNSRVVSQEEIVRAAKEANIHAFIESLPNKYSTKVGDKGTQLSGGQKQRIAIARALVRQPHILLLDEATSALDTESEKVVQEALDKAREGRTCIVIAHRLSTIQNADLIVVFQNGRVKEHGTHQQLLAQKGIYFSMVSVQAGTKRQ
Protocol: On day 21, transport study was initiated by carefully removing the culture medium from both AP and BL sides. The Caco-2 monolayers were rinsed twice with pre-warmed HBSS and were incubated with the same solution at 37°C for 30 min. […] The final concentration of DMSO in these solutions was less than 1%. […] Incubation was performed at 37°C for 180 min, with shaking at 50 rpm. […] The samples were frozen immediately and stored below-20°C before analysis.

[4] = Caco-2, in the equimolar mixture of the seven flavonoids
[5] = in the equimolar mixture of the seven flavonoids

| SMILES | Papp A→B at 90 min, 50 μmol/L [1, 4] | Papp B→A at 90 min, 50 μmol/L [1, 4] | Papp A→B at 90 min, 50 μmol/L ([1]; Caco-2, individual compound) | Papp B→A at 90 min, 50 μmol/L ([1]; Caco-2, individual compound) | Absorption mechanism (Caco-2 cell monolayer) | RSD% values for 24-hour stability [2] | Survival rates (%) (Caco-2 cells; 25 μmol/L) | Survival rates (%) (Caco-2 cells; 50 μmol/L) | Survival rates (%) (Caco-2 cells; 100 μmol/L) | P ratio Papp AP→BL/Papp BL→AP (Caco-2 cell monolayer; [5]) | P ratio Papp AP→BL/Papp BL→AP (Caco-2 cell monolayer; individual compound) | further results |
| --- | --- | --- | --- | --- | --- | --- | --- | --- | --- | --- | --- | --- |
| O=c1cc(-c2ccc(O)cc2)oc2c([C@@H]3O[C@H](CO)[C@@H](O)[C@H](O)[C@H]3O[C@@H]3O[C@H](CO)[C@H](O)[C@H](O)[C@H]3O)c(O)cc(O)c12 [2”-O-β-L-galactopyranosylvitexin, 8-((2S,3R,4S,5S,6R)-4,5-dihydroxy-6-(hydroxymethyl)-3-(((2S,3R,4S,5R,6R)-3,4,5-trihydroxy-6-(hydroxymethyl)tetrahydro-2H-pyran-2-yl)oxy)tetrahydro-2H-pyran-2-yl)-5,7-dihydroxy-2-(4-hydroxyphenyl)-4H-chromen-4-one] | 1.92 ± 0.42 ×10⁻⁶ cm/s | 0.81 ± 0.27 ×10⁻⁶ cm/s | 1.85 ± 0.02 ×10⁻⁶ cm/s | 4.68 ± 0.02 ×10⁻⁶ cm/s | transporter mediated efflux in addition to passive diffusion | 2.65% | – | – | – | – | – | – |
| COc1cc(O)c2c(=O)cc(-c3ccc(O)c(O)c3)oc2c1[C@@H]1O[C@H](CO)[C@@H](O)[C@H](O)[C@H]1O [Isoswertiajaponin, 2-(3,4-dihydroxyphenyl)-5-hydroxy-7-methoxy-8-((2S,3R,4R,5S,6R)-3,4,5-trihydroxy-6-(hydroxymethyl)tetrahydro-2H-pyran-2-yl)-4H-chromen-4-one] | 1.44 ± 0.47 ×10⁻⁶ cm/s | 0.54 ± 0.31 ×10⁻⁶ cm/s | 0.98 ± 0.03 ×10⁻⁶ cm/s | 1.19 ± 0.07 ×10⁻⁶ cm/s | passive diffusion without participation of transporter | 2.95% | 116.7±8.9% | 124.6±5.4% | 109.1±12.6% | 2.66 | 0.83 | P ratio Papp AP→BL/Papp BL→AP (Caco-2 cell monolayer; individual compound, listed as isoswertiajaponin): ~1 |
| COc1cc(O)c2c(=O)cc(-c3ccc(O)cc3)oc2c1[C@@H]1O[C@H](CO)[C@@H](O)[C@H](O)[C@H]1O [Isoswertisin, 5-hydroxy-2-(4-hydroxyphenyl)-7-methoxy-8-((2S,3R,4R,5S,6R)-3,4,5-trihydroxy-6-(hydroxymethyl)tetrahydro-2H-pyran-2-yl)-4H-chromen-4-one] | 2.69 ± 0.37 ×10⁻⁶ cm/s | 1.59 ± 0.2 ×10⁻⁶ cm/s | 1.07 ± 0.08 ×10⁻⁶ cm/s | 0.94 ± 0.18 ×10⁻⁶ cm/s | passive diffusion without participation of transporter | 2.82% | 110.8±9.9% | 115.3±5.5% | 116.0±8.6% | 1.69 | 1.14 | P ratio Papp AP→BL/Papp BL→AP (Caco-2 cell monolayer; individual compound, listed as isoswertisin): ~1 |
| O=c1cc(-c2ccc(O)c(O)c2)oc2c([C@@H]3O[C@H](CO)[C@@H](O)[C@H](O)[C@H]3O)c(O)cc(O)c12 [Orientin, 2-(3,4-dihydroxyphenyl)-5,7-dihydroxy-8-((2S,3R,4R,5S,6R)-3,4,5-trihydroxy-6-(hydroxymethyl)tetrahydro-2H-pyran-2-yl)-4H-chromen-4-one] | 1.14 ± 0.27 ×10⁻⁶ cm/s | 0.88 ± 0.31 ×10⁻⁶ cm/s | 0.75 ± 0.05 ×10⁻⁶ cm/s | 1.14 ± 0.08 ×10⁻⁶ cm/s | transporter mediated efflux in addition to passive diffusion | 2.35% | 100.4±1.3% | 114.3±7.5% | 111.5±2.4% | 1.29 | 0.66 | IC50 against parainfluenza virus type 3 [3]: 11.7 µg/mL (≈ 26.1 µM); MIC toward S. aureus (Staphylococcus aureus): 25 µg/mL (≈ 55.8 µM); MIC toward S. epidermidis (S. epidermidis): 25 µg/mL (≈ 55.8 µM); Anti-inflammatory effect against murine ear edema (murine ear edema model): possess anti-inflammatory effects; Substrate of P-gp (P-glycoprotein (P-gp)): substrates of P-gp; Effect of verapamil hydrochloride on the transport (P-glycoprotein (P-gp)): increased |
| CC(=O)O[C@H]1C(=O)[C@@]2(C)[C@H]([C@H](OC(=O)c3ccccc3)[C@]3(O)C[C@H](OC(=O)[C@H](O)[C@@H](NC(=O)c4ccccc4)c4ccccc4)C(C)=C1C3(C)C)[C@]1(OC(C)=O)CO[C@@H]1C[C@@H]2O [Paclitaxel, reference compound] | – | – | – | – | – | – | 67.3±8.2% | 45.5±6.7% | 37.4±3.5% | – | – | Survival rates (%) (Caco-2 cells; 25 μmol/L, listed as paclitaxel): 67.3%; Survival rates (%) (Caco-2 cells; 50 μmol/L, listed as paclitaxel): 45.5%; Survival rates (%) (Caco-2 cells; 100 μmol/L, listed as paclitaxel): 37.4% |
| O=c1cc(-c2ccc(O)cc2)oc2c([C@@H]3O[C@H](CO)[C@@H](O)[C@H](O)[C@H]3O)c(O)cc(O)c12 [Vitexin, 5,7-dihydroxy-2-(4-hydroxyphenyl)-8-((2S,3R,4R,5S,6R)-3,4,5-trihydroxy-6-(hydroxymethyl)tetrahydro-2H-pyran-2-yl)-4H-chromen-4-one] | 1.6 ± 0.18 ×10⁻⁶ cm/s | 1.03 ± 0.28 ×10⁻⁶ cm/s | 2.26 ± 0.37 ×10⁻⁶ cm/s | 3.38 ± 0.54 ×10⁻⁶ cm/s | transporter mediated efflux in addition to passive diffusion | 2.42% | 104.5±10.5% | 101.3±2.3% | 98.2±8.9% | 1.55 | 0.67 | IC50 against parainfluenza virus type 3 [3]: 20.8 µg/mL (≈ 48.1 µM); MIC toward S. aureus (Staphylococcus aureus): 100 µg/mL (≈ 231 µM); MIC toward S. epidermidis (S. epidermidis): 25 µg/mL (≈ 57.8 µM); Anti-inflammatory effect against murine ear edema (murine ear edema model): possess anti-inflammatory effects; Substrate of P-gp (P-glycoprotein (P-gp)): substrates of P-gp; Effect of verapamil hydrochloride on the transport (P-glycoprotein (P-gp)): increased |
| CC(C)NCC(O)COc1cccc2ccccc12 (centres unmarked) [propranolol, reference compound] | – | – | – | – | – | – | – | – | – | – | – | Papp ([1]; Caco-2, standard compounds, validation of the monolayer model): 14.4 ×10⁻⁶ cm/s |
